{
  "source": "patent USRE48267E1",
  "about": "“Variants of C-type natriuretic peptide” (priority 2009, dated 2020)",
  "key": {"[1]": {"biological_target": "neutral endopeptidase (NEP) (Homo sapiens, UniProt P08473)", "sequence (P08473 whole entry)": "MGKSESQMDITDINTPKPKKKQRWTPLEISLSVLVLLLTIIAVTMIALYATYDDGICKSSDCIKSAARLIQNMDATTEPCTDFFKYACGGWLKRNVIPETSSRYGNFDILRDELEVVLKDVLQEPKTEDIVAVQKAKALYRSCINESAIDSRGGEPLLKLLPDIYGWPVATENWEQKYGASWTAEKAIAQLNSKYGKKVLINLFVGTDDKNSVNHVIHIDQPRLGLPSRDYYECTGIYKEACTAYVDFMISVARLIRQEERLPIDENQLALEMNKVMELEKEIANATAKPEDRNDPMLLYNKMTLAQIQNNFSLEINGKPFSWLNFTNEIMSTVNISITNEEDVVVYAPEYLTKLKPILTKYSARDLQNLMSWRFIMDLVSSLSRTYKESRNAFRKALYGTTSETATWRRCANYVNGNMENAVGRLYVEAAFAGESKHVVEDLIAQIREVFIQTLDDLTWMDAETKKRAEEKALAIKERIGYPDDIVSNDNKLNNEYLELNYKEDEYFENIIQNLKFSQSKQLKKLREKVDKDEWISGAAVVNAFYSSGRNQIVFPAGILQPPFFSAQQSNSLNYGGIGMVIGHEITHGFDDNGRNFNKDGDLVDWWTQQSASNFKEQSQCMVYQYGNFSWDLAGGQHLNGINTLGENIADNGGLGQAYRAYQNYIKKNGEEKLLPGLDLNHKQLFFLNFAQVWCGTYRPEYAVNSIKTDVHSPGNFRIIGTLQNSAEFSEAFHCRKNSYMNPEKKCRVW", "assay": "in vitro", "conditions": "human, pH 7", "method_in_brief": "(§1)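 Recombinant human NEP (1 ug/mL final) incubated with 100 uM CNP variant in 0.1 M Tris, pH 7, at 37° C for various times, then quenched with EDTA (10 mM final) and heat. Samples reduced and analysed by HPLC and mass spectrometry. Half-life derived from loss of intact variant over time.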"}, "Recombinant human NEP": {"biological_target": "Recombinant human NEP (Homo sapiens, UniProt P08473)", "sequence (P08473 whole entry)": "as above", "assay": "in vitro NEP cleavage assay (disappearance of non-cleaved CNP variant)", "conditions": "for NEP Cleavage (t1/2, min): 100 uM peptide, 1 ug/mL NEP, 0.1 M Tris pH 7, 37° C., adjusted t1/2, CNP22 normalized to 80 min", "method_in_brief": "as §1"}, "NPR-B": {"biological_target": "T1, NPR-B (Mus musculus, UniProt Q6VVW5)", "T1 construct": "Murine NIH3T3 cells express endogenously the CNP signaling receptor, NPR-B; endogenous in cells; host or cells: NIH3T3", "T1 sequence (Q6VVW5 17-1047)": "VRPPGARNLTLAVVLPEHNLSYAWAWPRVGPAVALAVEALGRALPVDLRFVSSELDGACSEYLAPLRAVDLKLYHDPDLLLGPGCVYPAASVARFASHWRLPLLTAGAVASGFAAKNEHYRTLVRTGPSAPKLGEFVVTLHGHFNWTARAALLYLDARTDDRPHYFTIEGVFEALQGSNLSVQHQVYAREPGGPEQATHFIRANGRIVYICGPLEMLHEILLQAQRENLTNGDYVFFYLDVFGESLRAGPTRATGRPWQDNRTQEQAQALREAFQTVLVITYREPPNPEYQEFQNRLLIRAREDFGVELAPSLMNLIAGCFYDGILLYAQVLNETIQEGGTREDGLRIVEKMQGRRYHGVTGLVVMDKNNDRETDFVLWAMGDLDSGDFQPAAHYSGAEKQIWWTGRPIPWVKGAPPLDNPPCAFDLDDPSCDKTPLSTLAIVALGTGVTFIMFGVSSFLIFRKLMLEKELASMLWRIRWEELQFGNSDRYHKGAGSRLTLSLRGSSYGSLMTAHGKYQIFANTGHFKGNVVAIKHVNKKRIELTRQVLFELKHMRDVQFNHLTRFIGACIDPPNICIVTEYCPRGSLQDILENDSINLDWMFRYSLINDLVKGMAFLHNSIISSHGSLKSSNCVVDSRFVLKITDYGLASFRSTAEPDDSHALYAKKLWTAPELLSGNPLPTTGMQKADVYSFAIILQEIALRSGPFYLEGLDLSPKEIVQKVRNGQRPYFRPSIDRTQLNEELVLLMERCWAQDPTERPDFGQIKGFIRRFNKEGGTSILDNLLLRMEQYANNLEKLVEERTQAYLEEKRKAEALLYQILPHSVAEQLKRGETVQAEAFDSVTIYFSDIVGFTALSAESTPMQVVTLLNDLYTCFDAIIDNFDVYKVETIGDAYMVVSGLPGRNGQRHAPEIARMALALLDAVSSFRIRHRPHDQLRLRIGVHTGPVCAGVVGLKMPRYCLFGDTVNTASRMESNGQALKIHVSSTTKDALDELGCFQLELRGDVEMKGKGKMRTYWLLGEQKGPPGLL", "assay": "stimulation of cGMP production in NIH3T3 cells", "assay_type": "cell-based, murine", "conditions": "normalized to cell number and cGMP production in the presence of 1 uM wtCNP22; for cGMP Response rel. to 1 uM CNP22, 10 nM: NIH3T3 cells exposed to 10 nM peptide; for cGMP Response rel. to 1 uM CNP22, 1 uM: NIH3T3 cells exposed to 1 uM peptide", "method": "To determine the functional activity of CNP variants, the production of cGMP was measured in NIH3T3 cells exposed to the CNP variants. Murine NIH3T3 cells express endogenously the CNP signaling receptor, NPR-B, which shares 98% protein sequence identity with human NPR-B. NIH3T3 cells were cultured in high glucose Dulbecco's Modified Eagle Medium supplemented with 10% fetal calf serum and antibiotics at 37° C. with 5% CO2). Twenty four to 48 hours prior to signaling, cells were passaged to 12-well plates with a density of 2-5×10^5 cells per well at the time of the assay. CNP variants were resuspended in 1 mM HCl to a stock concentration of 1 mg/mL (455 uM for wtCNP22) and subsequently diluted to a 30 uM working stock solution with phosphate-buffered saline (PBS). Ten-fold serial dilutions were prepared in phosphate-buffered saline. Culture medium was removed from the cells and replaced with 0.4 mL PBS/Dulbecco's modified Eagle medium (50/50, v/v) containing 0.75 mM isobutylmethylxanine. Plates were incubated at 37° C., 5% CO2 for 15 minutes before addition of 0.2 mL CNP variant in PBS and continued incubation at 37° C. for 15 minutes. Reactions were stopped by the addition of 0.2 mL lysis buffer supplied with the CatchPoint cGMP assay kit (Molecular Devices), and cGMP production was determined with the CatchPoint cGMP Assay (Molecular Devices). All stimulation experiments were performed in duplicate.\nTables 1-4 summarize the ability of CNP variants having backbone or side chain modifications, amino acid substitutions, N-terminal amino acid extensions, and/or N-terminal PEGylation, respectively, to stimulate cGMP production in NIH3T3 cells. In all four tables, the values for cGMP production in NIH3T3 cells exposed to 10 nM or 1 uM CNP variant are normalized to cell number and cGMP production in the presence of 1 uM wtCNP22."}, "[2]": {"biological_target": "T2, NPR-B (natriuretic peptide receptor B), murine, expressed endogenously on NIH3T3 cells (murine, UniProt Q6VVW5 17-1047)", "T2 sequence (looked up)": "T1 sequence (Q6VVW5 17-1047)", "assay": "cell-based or functional assay"}},
  "note": "Where a SMILES comes first, the peptide text is derived from it. Bridges are numbered along the chain shown (N, C = ends). Where no end group is shown, it is not given here. [ ]: non-standard residue; d: D form. NMeL = CN[C@@H](CC(C)C)C(=O)O",
  "data": [
    {"molecule": "CC[C@H](C)[C@@H]1NC(=O)[C@H](CCCNC(=N)N)NC(=O)[C@H](CC(=O)O)NC(=O)[C@H](CC(C)C)NC(=O)[C@H](CCCCN)NC(=O)[C@H](CC(C)C)NC(=O)CNC(=O)[C@H](Cc2ccccc2)NC(=O)[C@@H](NC(=O)CNC(=O)[C@H](CCCCN)NC(=O)[C@H](CO)NC(=O)[C@H](CC(C)C)NC(=O)CNC(=O)CCOCCOCCOCCOCCOCCOCCOCCOCCOCCOCCOCCOC)CSSC[C@@H](C(=O)O)NC(=O)CNC(=O)[C@H](CC(C)C)NC(=O)CNC(=O)[C@H](CO)NC(=O)[C@H](CCSC)NC(=O)[C@H](CO)NC(=O)CNC1=O", "note": "[PEO12-CNP22]", "values": [
      {"measurement": "half-life at 100 uM", "setting": "[1]", "value": 2.67, "unit": "h"}
    ]},
    {"molecule": "CC[C@@H](C)[C@H]1NC(=O)[C@@H](CCCNC(=N)N)NC(=O)[C@@H](CC(=O)O)NC(=O)[C@@H](CC(C)C)NC(=O)[C@@H](CCCCN)NC(=O)[C@@H](CC(C)C)NC(=O)CNC(=O)[C@@H](Cc2ccccc2)NC(=O)[C@H](NC(=O)CNC(=O)[C@@H](CCCCN)NC(=O)[C@@H](CO)NC(=O)[C@@H](CC(C)C)NC(=O)CN)CSSC[C@H](C(=O)O)NC(=O)CNC(=O)[C@@H](CC(C)C)NC(=O)CNC(=O)[C@@H](CO)NC(=O)[C@@H](CCSC)NC(=O)[C@@H](CO)NC(=O)CNC1=O", "note": "[Analog N, D-CNP22 (all D-amino acids)]", "values": [
      {"measurement": "NEP Cleavage (t1/2, min)", "setting": "Recombinant human NEP", "value": ">>160 min"},
      {"measurement": "resistance to NEP cleavage (in words)", "setting": "Recombinant human NEP; in vitro NEP assay, assay period 160 minutes", "value": "greatest resistance to NEP cleavage"},
      {"measurement": "cGMP Response rel. to 1 uM CNP22, 10 nM", "setting": "NPR-B", "value": 2},
      {"measurement": "cGMP Response rel. to 1 uM CNP22, 1 uM", "setting": "NPR-B", "value": 1}
    ]},
    {"molecule": "CC[C@H](C)[C@@H]1NC(=O)[C@H](CCCNC(=N)N)NC(=O)[C@H](CC(=O)O)NC(=O)[C@H](CC(C)C)NC(=O)[C@H](CCCCN)NC(=O)[C@H](CC(C)C)NC(=O)CNC(=O)[C@H](Cc2cccc(Cl)c2)NC(=O)[C@@H](NC(=O)CNC(=O)[C@H](CCCCN)NC(=O)[C@H](CO)NC(=O)[C@H](CC(C)C)NC(=O)CN)CSSC[C@@H](C(=O)O)NC(=O)CNC(=O)[C@H](CC(C)C)NC(=O)CNC(=O)[C@H](CO)NC(=O)[C@H](CCSC)NC(=O)[C@H](CO)NC(=O)CNC1=O", "note": "[Analog G]", "values": [
      {"measurement": "resistance to cleavage at the Cys6-Phe7 bond relative to wtCNP22", "setting": "Recombinant human NEP", "value": "resistance or improved resistance"},
      {"measurement": "NEP Cleavage (t1/2, min)", "setting": "Recombinant human NEP", "value": 135, "unit": "min"},
      {"measurement": "half-life compared to those for Analogs A, B, F and H", "setting": "Recombinant human NEP; human", "value": "1.5-2.5 fold"},
      {"measurement": "half-life in comparison to wtCNP22", "setting": "Recombinant human NEP; human", "value": "about 1.5 times"},
      {"measurement": "cGMP Response rel. to 1 uM CNP22, 10 nM", "setting": "NPR-B", "value": 17},
      {"measurement": "cGMP Response rel. to 1 uM CNP22, 1 uM", "setting": "NPR-B", "value": 93}
    ]},
    {"molecule": "CC[C@H](C)[C@@H]1NC(=O)[C@H](CCCNC(=N)N)NC(=O)[C@H](CC(=O)O)NC(=O)[C@H](CC(C)C)NC(=O)[C@H](CCCCN)NC(=O)[C@H](CC(C)C)NC(=O)CNC(=O)[C@H](Cc2ccccc2)NC(=O)[C@@H](NC(=O)CNC(=O)CNC(=O)[C@H](CO)NC(=O)[C@H](CC(C)C)NC(=O)CN)CSSC[C@@H](C(=O)O)NC(=O)CNC(=O)[C@H](CC(C)C)NC(=O)CNC(=O)[C@H](CO)NC(=O)[C@H](CCSC)NC(=O)[C@H](CO)NC(=O)CNC1=O", "note": "[Analog P, CNP22, K4G] (H-GLSGGCFGLKLDRIGSMSGLGC-OH; disulfide 6-22)", "values": [
      {"measurement": "half-life at 100 uM", "setting": "[1]; recombinant human neutral endopeptidase (NEP)", "value": 1.13, "unit": "h"}
    ]},
    {"molecule": "GLSKGCFG[NMeL]K[NMeL]DRIGSMSGLGC (ends and bridges not checked)", "note": "[CNP22, N-methyl-L9, N-methyl-L11]", "values": [
      {"measurement": "cGMP response rel. to 1 uM CNP22; 10 nM peptide, NIH3T3 cells", "setting": "[2]", "value": "1 rel. to 1 uM CNP22 (100)"},
      {"measurement": "cGMP response rel. to 1 uM CNP22; 1 uM peptide, NIH3T3 cells", "setting": "[2]", "value": "11 rel. to 1 uM CNP22 (100)"}
    ]},
    {"molecule": "GLSKGCFG[NMeL]K[NMeL]DRIGSMSG[NMeL]GC (ends and bridges not checked)", "note": "[CNP22, N-methyl-L9, N-methyl-L11, N-methyl-L20]", "values": [
      {"measurement": "cGMP response rel. to 1 uM CNP22; 10 nM peptide, NIH3T3 cells", "setting": "[2]", "value": "18 rel. to 1 uM CNP22 (100)"},
      {"measurement": "cGMP response rel. to 1 uM CNP22; 1 uM peptide, NIH3T3 cells", "setting": "[2]", "value": "10 rel. to 1 uM CNP22 (100)"}
    ]},
    {"molecule": "GLSKGCXGLKLDRIGSMSGLGC (3-Cl-Phe at 7)", "note": "[CNP22, 3-chloro-F7]", "values": [
      {"measurement": "cGMP response rel. to 1 uM CNP22; 10 nM peptide, NIH3T3 cells", "setting": "[2]", "value": "17 rel. to 1 uM CNP22 (100)"},
      {"measurement": "cGMP response rel. to 1 uM CNP22; 1 uM peptide, NIH3T3 cells", "setting": "[2]", "value": "93 rel. to 1 uM CNP22 (100)"}
    ]},
    {"molecule": "G[dL][dS][dK]G[dC][dF]G[dL][dK][dL][dD][dR][dI]G[dS][dM][dS]G[dL]G[dC] (ends and bridges not checked)", "note": "[D-CNP22 (all D-amino acids)]", "values": [
      {"measurement": "cGMP response rel. to 1 uM CNP22; 10 nM peptide, NIH3T3 cells", "setting": "[2]", "value": "2 rel. to 1 uM CNP22 (100)"},
      {"measurement": "cGMP response rel. to 1 uM CNP22; 1 uM peptide, NIH3T3 cells", "setting": "[2]", "value": "1 rel. to 1 uM CNP22 (100)"}
    ]}
  ]
}
